Results: ChEMBL document CHEMBL1157740, “The discovery of novel tartrate-based TNF-alpha converting enzyme (TACE) inhibitors” (Bioorg Med Chem Lett, 2010)

Tests used:
[1] = target: Disintegrin and metalloproteinase domain-containing protein 17 (Homo sapiens, UniProt P78536); assay: Inhibition of TACE
[2] = target: Matrix metalloproteinase-14 (Homo sapiens, UniProt P50281); assay: Inhibition of MMP14
[3] = target: T1, Disintegrin and metalloproteinase domain-containing protein 10 (Homo sapiens, UniProt O14672); assay: Inhibition of ADAM10
T1 sequence (O14672 whole entry): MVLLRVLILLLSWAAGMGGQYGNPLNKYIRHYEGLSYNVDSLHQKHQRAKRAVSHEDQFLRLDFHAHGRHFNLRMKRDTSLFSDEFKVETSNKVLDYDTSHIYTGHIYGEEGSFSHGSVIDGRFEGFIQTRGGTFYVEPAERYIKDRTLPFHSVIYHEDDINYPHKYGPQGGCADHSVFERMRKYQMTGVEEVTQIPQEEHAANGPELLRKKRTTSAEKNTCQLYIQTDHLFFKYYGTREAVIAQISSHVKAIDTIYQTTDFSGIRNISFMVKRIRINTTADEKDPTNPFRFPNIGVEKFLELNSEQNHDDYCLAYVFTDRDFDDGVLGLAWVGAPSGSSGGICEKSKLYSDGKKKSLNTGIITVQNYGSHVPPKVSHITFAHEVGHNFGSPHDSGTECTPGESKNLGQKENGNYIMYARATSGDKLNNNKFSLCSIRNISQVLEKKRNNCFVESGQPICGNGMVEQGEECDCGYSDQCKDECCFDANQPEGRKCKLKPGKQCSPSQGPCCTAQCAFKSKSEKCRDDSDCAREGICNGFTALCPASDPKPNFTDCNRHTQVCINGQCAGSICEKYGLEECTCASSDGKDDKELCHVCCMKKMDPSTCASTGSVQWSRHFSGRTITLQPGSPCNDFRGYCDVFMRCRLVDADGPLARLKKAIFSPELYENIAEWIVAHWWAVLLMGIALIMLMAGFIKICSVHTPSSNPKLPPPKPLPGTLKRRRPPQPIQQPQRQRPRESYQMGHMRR

[4] = target: 72 kDa type IV collagenase (Homo sapiens, UniProt P08253); assay: Inhibition of MMP2
Collagenase 3 = Collagenase 3 (Homo sapiens, UniProt P45452); assay: Inhibition of MMP13
Interstitial collagenase = target: T2, Interstitial collagenase (Homo sapiens, UniProt P03956); assay: Inhibition of MMP1
T2 sequence (P03956 whole entry): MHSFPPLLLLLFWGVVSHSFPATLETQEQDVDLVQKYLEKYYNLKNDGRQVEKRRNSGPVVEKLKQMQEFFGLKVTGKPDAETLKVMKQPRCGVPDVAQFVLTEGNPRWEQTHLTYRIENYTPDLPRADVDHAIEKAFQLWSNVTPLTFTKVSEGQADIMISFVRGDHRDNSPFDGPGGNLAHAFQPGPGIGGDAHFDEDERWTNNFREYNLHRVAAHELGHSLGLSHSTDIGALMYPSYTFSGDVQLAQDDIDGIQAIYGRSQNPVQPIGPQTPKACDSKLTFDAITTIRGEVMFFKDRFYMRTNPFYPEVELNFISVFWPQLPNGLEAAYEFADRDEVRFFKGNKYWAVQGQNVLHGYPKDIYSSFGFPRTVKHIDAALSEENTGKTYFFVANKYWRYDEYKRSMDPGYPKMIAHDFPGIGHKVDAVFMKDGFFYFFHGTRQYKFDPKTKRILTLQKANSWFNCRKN

[5] = target: Macrophage metalloelastase (Homo sapiens, UniProt P39900); assay: Inhibition of MMP12
Matrilysin = target: T3, Matrilysin (Homo sapiens, UniProt P09237); assay: Inhibition of MMP7
T3 sequence (P09237 whole entry): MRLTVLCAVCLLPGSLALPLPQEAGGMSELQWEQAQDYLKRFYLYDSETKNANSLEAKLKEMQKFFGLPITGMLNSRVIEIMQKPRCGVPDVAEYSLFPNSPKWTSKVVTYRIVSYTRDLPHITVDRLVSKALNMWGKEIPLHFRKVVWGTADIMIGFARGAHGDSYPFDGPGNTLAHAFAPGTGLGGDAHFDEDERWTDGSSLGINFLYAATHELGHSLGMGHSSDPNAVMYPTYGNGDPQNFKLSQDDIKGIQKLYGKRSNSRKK

Stromelysin-1 = Stromelysin-1 (Homo sapiens, UniProt P08254); assay: Inhibition of MMP3
Sequence of Stromelysin-1 (P08254 whole entry): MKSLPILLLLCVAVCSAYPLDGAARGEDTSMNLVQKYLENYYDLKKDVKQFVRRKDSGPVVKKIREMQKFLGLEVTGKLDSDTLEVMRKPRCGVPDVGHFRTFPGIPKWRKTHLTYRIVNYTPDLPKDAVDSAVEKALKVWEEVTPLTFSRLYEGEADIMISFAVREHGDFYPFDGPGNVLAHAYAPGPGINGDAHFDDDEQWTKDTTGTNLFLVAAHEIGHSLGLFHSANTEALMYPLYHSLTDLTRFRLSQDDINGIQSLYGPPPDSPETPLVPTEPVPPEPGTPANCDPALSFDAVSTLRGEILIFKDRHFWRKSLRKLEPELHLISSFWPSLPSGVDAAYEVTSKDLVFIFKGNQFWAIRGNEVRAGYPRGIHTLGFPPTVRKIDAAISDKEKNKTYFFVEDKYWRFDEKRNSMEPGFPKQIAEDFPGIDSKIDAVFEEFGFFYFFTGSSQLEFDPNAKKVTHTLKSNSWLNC

Sequence of Macrophage metalloelastase (P39900 whole entry): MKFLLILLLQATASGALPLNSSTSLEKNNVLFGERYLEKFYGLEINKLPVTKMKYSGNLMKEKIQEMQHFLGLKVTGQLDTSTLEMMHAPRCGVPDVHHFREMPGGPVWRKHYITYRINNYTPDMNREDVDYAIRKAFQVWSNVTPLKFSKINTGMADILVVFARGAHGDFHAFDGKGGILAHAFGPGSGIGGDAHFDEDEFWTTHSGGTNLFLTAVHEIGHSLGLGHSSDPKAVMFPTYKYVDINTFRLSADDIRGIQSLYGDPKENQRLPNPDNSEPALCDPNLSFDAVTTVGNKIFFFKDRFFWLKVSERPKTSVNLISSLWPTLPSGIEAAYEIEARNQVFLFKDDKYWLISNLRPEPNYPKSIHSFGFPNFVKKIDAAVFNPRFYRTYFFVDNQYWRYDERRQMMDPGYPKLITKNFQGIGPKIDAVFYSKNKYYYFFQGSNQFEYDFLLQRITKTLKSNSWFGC
Sequence of Disintegrin and metalloproteinase domain-containing protein 17 (P78536 whole entry, the tested form may be a part): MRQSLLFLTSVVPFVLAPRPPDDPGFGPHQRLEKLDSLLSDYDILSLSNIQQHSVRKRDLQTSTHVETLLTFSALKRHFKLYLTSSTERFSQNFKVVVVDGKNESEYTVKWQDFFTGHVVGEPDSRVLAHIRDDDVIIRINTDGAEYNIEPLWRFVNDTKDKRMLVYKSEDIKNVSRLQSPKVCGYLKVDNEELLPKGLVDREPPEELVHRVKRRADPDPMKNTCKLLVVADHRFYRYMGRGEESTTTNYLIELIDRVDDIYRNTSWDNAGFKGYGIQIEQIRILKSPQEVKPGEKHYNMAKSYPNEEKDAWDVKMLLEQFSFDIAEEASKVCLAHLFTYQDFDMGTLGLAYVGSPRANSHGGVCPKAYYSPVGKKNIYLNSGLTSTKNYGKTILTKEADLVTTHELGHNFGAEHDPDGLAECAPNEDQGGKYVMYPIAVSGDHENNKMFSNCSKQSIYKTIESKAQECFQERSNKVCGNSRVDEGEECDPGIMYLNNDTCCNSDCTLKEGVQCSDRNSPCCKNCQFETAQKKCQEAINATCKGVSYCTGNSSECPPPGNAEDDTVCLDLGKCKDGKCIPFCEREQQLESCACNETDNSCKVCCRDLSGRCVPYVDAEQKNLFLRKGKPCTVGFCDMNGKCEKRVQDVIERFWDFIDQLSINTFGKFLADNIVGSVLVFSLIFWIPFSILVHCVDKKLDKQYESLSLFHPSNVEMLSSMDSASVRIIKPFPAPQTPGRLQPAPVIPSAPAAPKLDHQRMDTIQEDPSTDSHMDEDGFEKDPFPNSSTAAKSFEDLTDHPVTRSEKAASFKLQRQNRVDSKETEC
Sequence of 72 kDa type IV collagenase (P08253 whole entry): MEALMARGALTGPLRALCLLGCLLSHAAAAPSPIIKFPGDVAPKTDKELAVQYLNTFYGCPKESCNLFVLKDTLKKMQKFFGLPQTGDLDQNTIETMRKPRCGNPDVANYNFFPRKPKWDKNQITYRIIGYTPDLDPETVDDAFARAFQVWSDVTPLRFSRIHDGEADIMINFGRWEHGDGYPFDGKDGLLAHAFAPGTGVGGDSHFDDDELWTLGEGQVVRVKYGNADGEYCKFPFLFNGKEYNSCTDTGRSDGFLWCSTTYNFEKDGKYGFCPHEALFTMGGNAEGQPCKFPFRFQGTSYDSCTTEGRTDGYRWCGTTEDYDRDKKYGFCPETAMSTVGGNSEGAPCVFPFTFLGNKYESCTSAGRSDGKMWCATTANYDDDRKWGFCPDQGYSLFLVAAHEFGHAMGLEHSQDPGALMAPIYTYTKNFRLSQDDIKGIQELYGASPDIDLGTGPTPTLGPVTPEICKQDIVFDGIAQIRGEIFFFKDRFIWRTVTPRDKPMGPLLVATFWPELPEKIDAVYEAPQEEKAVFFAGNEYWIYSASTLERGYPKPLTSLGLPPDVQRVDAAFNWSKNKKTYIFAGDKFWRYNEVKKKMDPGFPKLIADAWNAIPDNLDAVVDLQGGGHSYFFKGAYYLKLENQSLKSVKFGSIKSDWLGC

Structure (SMILES)	Ki ([1]; read-out: Ki) [nM]	further results
COc1cccc(C2CCCN2C(=O)[C@H](O)[C@@H](O)C(=O)N(C)CCc2cccs2)c1 (some centres undefined)	33	–
O=C(NCCc1cc(Cc2ccccc2)cs1)[C@H](O)[C@@H](O)C(=O)N1CCCC1c1ccccc1 (some centres undefined)	66	Ki [2]: > 30000 nM; Ki [3]: > 25000 nM; Ki [4]: > 50000 nM; Ki (Collagenase 3): 3600 nM; Ki (Interstitial collagenase): > 50000 nM; Ki [5]: 700 nM; Ki (Matrilysin): 6000 nM
CN(Cc1cccnc1)C(=O)[C@H](O)[C@@H](O)C(=O)NCCc1cccs1	943	–
O=C(NCCc1cccs1)[C@H](O)[C@@H](O)C(=O)N1CCN(c2ccccn2)CC1	2500	–
O=C(NCc1ccc(Cc2ccccc2)cc1)[C@H](O)[C@@H](O)C(=O)N1CCCC1c1cccc(Cl)c1 (some centres undefined)	70	–
O=C(NCCc1cccs1)[C@H](O)[C@@H](O)C(=O)N1CCCC1c1ccccn1 (some centres undefined)	188	–
O=C(NCc1nc(Cc2ccccc2)co1)[C@H](O)[C@@H](O)C(=O)N1CCCC1c1ccccc1 (some centres undefined)	22	–
O=C(NCc1cc(Cc2ccccc2Cl)cs1)[C@H](O)[C@@H](O)C(=S)N1CCCC1c1cccc(Cl)c1 (some centres undefined)	1520	–
Cn1ccnc1[C@H](O)[C@@H](O)C(=O)NCCc1cccs1	10600	–
Cc1cccc(C2CCCN2C(=O)[C@H](O)[C@@H](O)C(=O)N(C)CCc2cccs2)c1 (some centres undefined)	13	–
O=C(NCc1cc(CC2C=CC=CC2Cl)cs1)[C@H](O)[C@@H](O)C(=O)N1CCC[C@@H]1c1cccc(Cl)c1 (some centres undefined)	13	–
CN(C)c1cccc(C2CCCN2C(=O)[C@H](O)[C@@H](O)C(=O)NCCc2cccs2)c1 (some centres undefined)	41	–
O=C(NCCc1cccs1)[C@H](O)[C@@H](O)C(=O)N1CCCC1c1cccc(Cl)c1 (some centres undefined)	11	Ki [2]: 11000 nM; Ki [3]: 29 nM; Ki [4]: 33000 nM; Ki (Collagenase 3): 20000 nM; Ki (Interstitial collagenase): > 50000 nM; Ki [5]: > 50000 nM; Ki (Stromelysin-1): 17000 nM; Ki (Matrilysin): > 50000 nM
O=C(NCCc1cccs1)[C@H](O)[C@@H](O)C(=O)N1CCCC1c1ccccc1 (some centres undefined)	96	–
O=C(NCCc1cccs1)[C@H](O)[C@@H](O)c1nccs1	5530	–
O=C(NCCc1cccs1)[C@H](O)[C@@H](O)C(=O)N1Cc2ccccc2C1	66	–
O=C(NCCc1cccs1)[C@H](O)[C@@H](O)C(=O)N1CCCCC1c1ccccc1 (some centres undefined)	325	–
O=C(NCCc1cccs1)[C@H](O)[C@@H](O)C(=O)N1CCN(c2ccccc2Cl)CC1	400	Ki [2]: > 40000 nM; Ki [3]: 400 nM; Ki [4]: > 30000 nM; Ki (Collagenase 3): 7000 nM; Ki (Interstitial collagenase): > 90000 nM; Ki [5]: 9000 nM; Ki (Stromelysin-1): > 50000 nM; Ki (Matrilysin): > 60000 nM
CN(Cc1ccccc1)C(=O)[C@H](O)[C@@H](O)C(=O)NCCc1cccs1	764	–
O=C(NCCc1cccs1)[C@H](O)[C@@H](O)C(=O)N1CCCC1c1ccc(Cl)cc1 (some centres undefined)	755	–
CN(CCc1cccs1)C(=O)[C@H](O)[C@@H](O)C(=O)N1CCN(c2ccccc2Cl)CC1	–	Ki [1]: Not Active
O=C(NCCc1cccs1)[C@H](O)[C@@H](O)C(=O)NCc1ccccc1	–	Ki [1]: Not Active

Structure (SMILES)	Ki ([1]; read-out: Ki) [nM]	further results
C[C@H](c1ccccc1)N(C)C(=O)[C@H](O)[C@@H](O)C(=O)NCCc1cccs1	238	–
O=C(NCCc1cccs1)[C@H](O)[C@@H](O)C(=O)N1CCCC1c1ccccc1Cl (some centres undefined)	323	–
O=C(NCCc1nc(Cc2ccccc2)co1)[C@H](O)[C@@H](O)C(=O)N1CCCC1c1ccccc1 (some centres undefined)	461	–
O=C(NCCc1cccs1)[C@H](O)CC(=O)N1CCCC1c1cccc(Cl)c1 (some centres undefined)	–	Ki [1]: Not Active
O=C(NCc1nc(Cc2ccccc2)cs1)[C@H](O)[C@@H](O)C(=O)N1CCCC1c1ccccc1 (some centres undefined)	8	–
CN(CCc1ccccc1)C(=O)[C@H](O)[C@@H](O)C(=O)NCCc1cccs1	1280	–
O=C(NCCc1cccs1)[C@H](O)[C@@H](O)C(=O)N1CCC(Cc2ccccc2)CC1	1100	–
O=C(NCc1cc(Cc2ccccc2)cs1)[C@H](O)[C@@H](O)C(=O)N1CCCC1c1ccc(F)cc1 (some centres undefined)	93	–
O=C(NCCc1cccs1)[C@H](O)[C@@H](O)C(=O)N1CCC(c2ccccc2)C1 (some centres undefined)	456	–
O=C(NCCc1cccs1)[C@H](O)[C@@H](O)C(=O)N1CCC[C@@H]1c1ccccc1	20	–
CN(C)C(=O)[C@H](O)[C@@H](O)C(=O)NCCc1cccs1	1300	–
O=C([C@H](O)[C@@H](O)C(=S)NCc1cc(Cc2ccccc2Cl)cs1)N1CCCC1c1cccc(Cl)c1 (some centres undefined)	1110	–
COc1cccc(N2CCN(C(=O)[C@H](O)[C@@H](O)C(=O)NCCc3cccs3)CC2)c1	400	–
C[C@@H](c1ccccc1)N(C)C(=O)[C@H](O)[C@@H](O)C(=O)NCCc1cccs1	487	–
O=C(NCCc1cccs1)[C@H](O)[C@@H](O)C(=O)N1CCCC1c1nccs1 (some centres undefined)	164	–
O=C(NCCc1cccs1)[C@H](O)[C@@H](O)C(=O)N1CCc2ccccc2C1	91	–
O=C(NCc1cc2ccccc2o1)[C@H](O)[C@@H](O)C(=O)N1CCCC1c1ccccc1 (some centres undefined)	160	Ki [2]: 140 nM; Ki [3]: 734 nM; Ki [4]: 300 nM; Ki (Collagenase 3): 510 nM; Ki (Interstitial collagenase): 18700 nM; Ki (Stromelysin-1): 7700 nM; Ki (Matrilysin): > 50000 nM
O=C(NCCc1nc(Cc2ccccc2)cs1)[C@H](O)[C@@H](O)C(=O)N1CCCC1c1ccccc1 (some centres undefined)	48	–
CN(Cc1ccco1)C(=O)[C@H](O)[C@@H](O)C(=O)NCCc1cccs1	1020	–
O=C(C[C@@H](O)C(=O)N1CCCC1c1cccc(Cl)c1)NCCc1cccs1 (some centres undefined)	–	Ki [1]: Not Active
O=C(NCc1ccccc1)[C@H](O)[C@@H](O)C(=O)N1CCCC1c1cccc(Cl)c1 (some centres undefined)	1440	–
CN(C(=O)[C@H](O)[C@@H](O)C(=O)NCCc1cccs1)C1CCCCC1	1400	–
